The record followed here is patent US20240158393A1, “PYRIDONE COMPOUNDS AND METHODS OF USE” (Exelixis, Inc., priority 2021, published 2024).

pIC50: −log10 of the molar value.

In one assay the target is T1, Human Met (Homo sapiens, UniProt P08581).
T1 construct: Human MET (residues 956-1390)
Briefly: Human Met kinase assay (33P radiometric / HTRF KinEase). The class given is biochemical. Particulars: protocols of Examples D-1 and/or D-2; read-out: c-Met IC50. The essentials: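 Two formats gave IC50s by curve fitting. HTRF KinEase used MET residues 956-1390 with 1 μM biotin-peptide and 3.0 μM ATP (Km) for 40 min at room temperature, ten doses in 3% DMSO, 665/620 nm read. The 33P transfer assay used mutant Met R974-S1390 A1209G/V1290L (3.4 nM), 10 μM ATP, 250 μM peptide, pH 7.0, 40 min, nine doses from 1 μM.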
Background: TR-FRET usually uses a lanthanide donor and a delayed reading to cut background.

In the next assay the target is T2, Human Mer (Homo sapiens, UniProt Q12866).
T2 construct: Human Mer (residues R557-E882 with H628Q and R794A, 0.7 nM); purchased Eurofins Pharma Discovery Services UK Limited (KinaseProfiler service)
T2 sequence (Q12866 557-882 limits assumed): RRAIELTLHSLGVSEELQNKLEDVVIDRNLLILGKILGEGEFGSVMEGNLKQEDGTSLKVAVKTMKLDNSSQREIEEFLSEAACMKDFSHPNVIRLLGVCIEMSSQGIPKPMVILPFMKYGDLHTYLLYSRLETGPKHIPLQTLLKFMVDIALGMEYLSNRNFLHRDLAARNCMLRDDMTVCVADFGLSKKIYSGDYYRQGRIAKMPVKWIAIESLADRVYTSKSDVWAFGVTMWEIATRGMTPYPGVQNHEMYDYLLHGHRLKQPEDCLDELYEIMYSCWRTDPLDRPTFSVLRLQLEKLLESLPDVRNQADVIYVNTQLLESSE
Description: Human Mer kinase assay (33P radiometric / HTRF KinEase). Particulars: protocols of Examples C-1 and/or C-2. It counts as biochemical. The essentials:
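Two formats yield IC50 values. HTRF KinEase used MER residues 528-999 with ATP at Km (40 μM), 1 μM biotin-peptide, 60 min RT, […], 10 concentrations. 33P filter assay used 0.7 nM Mer R557-E882 (H628Q/R794A), 10 μM ATP, 250 μM peptide, 40 min RT, top 1 μM.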

T1 sequence (P08581 974-1390 limits assumed): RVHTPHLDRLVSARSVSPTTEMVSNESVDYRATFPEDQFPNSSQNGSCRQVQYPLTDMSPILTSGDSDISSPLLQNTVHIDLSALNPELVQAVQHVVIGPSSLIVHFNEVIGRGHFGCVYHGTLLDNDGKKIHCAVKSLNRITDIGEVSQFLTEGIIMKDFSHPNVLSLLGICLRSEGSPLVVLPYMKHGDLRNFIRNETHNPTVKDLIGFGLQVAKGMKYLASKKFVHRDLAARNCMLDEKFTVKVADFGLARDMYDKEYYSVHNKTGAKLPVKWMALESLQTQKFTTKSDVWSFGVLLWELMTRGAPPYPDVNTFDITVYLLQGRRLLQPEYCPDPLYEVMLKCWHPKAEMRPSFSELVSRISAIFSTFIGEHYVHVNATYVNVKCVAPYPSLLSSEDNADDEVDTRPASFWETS

In general, pIC50 refers to the IC50 on a negative log10 scale, so that one unit is a factor of ten. Turning to `C=C(C)c1c(C)nc(C)c(C(=O)Nc2cc(F)c(Oc3ccnc4cc(OC)c(OC)nc34)cc2F)c1O` [Compound 6, N-[4-[(6,7-Dimethoxy-1,5-naphthyridin-4-yl)oxy]-2,5-difluorophenyl]-4-hydroxy-2,6-dimethyl-5-prop-1-en-2-ylpyridine-3-carboxamide], the pIC50 on Human Met and at Human Mer was no less than 7.00 each time.
Regarding `COc1cnc2c(Oc3ccc(NC(=O)c4cnc(C)c(C5=CCOCC5)c4O)cc3)ccnc2c1` [Compound 7, 5-(3,6-Dihydro-2H-pyran-4-yl)-4-hydroxy-N-[4-[(7-methoxy-1,5-naphthyridin-4-yl)oxy]phenyl]-6-methylpyridine-3-carboxamide], the pIC50 at Human Met and against Human Mer was no less than 7.00 each time.
In the case of `COc1cc2nccc(Oc3ccc(NC(=O)c4cn(CCF)c(C)c(C5=CCCCC5)c4=O)cc3F)c2nc1OC` [Compound 8, 5-(Cyclohexen-1-yl)-N-[4-[(6,7-dimethoxy-1,5-naphthyridin-4-yl)oxy]-3-fluorophenyl]-1-(2-fluoroethyl)-6-methyl-4-oxopyridine-3-carboxamide], the pIC50 on Human Met and against Human Mer was no less than 7.00 in each case.
For `COc1cc2nccc(Oc3ccc(NC(=O)c4c(C)nc(C)c(C(C)C)c4O)cc3)c2nc1OC` [Compound 9, N-[4-[(6,7-Dimethoxy-1,5-naphthyridin-4-yl)oxy]phenyl]-4-hydroxy-2,6-dimethyl-5-propan-2-ylpyridine-3-carboxamide], the pIC50 on Human Met and against Human Mer was no less than 7.00 throughout.
Turning to `COc1cc2nccc(Oc3cc(F)c(NC(=O)c4c(C)nc(C)c(C(C)C)c4O)cc3F)c2nc1OC` [Compound 10, N-[4-[(6,7-Dimethoxy-1,5-naphthyridin-4-yl)oxy]-2,5-difluorophenyl]-4-hydroxy-2,6-dimethyl-5-propan-2-ylpyridine-3-carboxamide], the pIC50 on Human Met and against Human Mer was no less than 7.00 in each case.
On to `COc1cc2nccc(Oc3ccc(NC(=O)c4cn(CCF)c(C)c(C5=CCCC5)c4=O)cc3F)c2nc1OC` [Compound 11, 5-(Cyclopenten-1-yl)-N-[4-[(6,7-dimethoxy-1,5-naphthyridin-4-yl)oxy]-3-fluorophenyl]-1-(2-fluoroethyl)-6-methyl-4-oxopyridine-3-carboxamide], for which the negative-log IC50 (pIC50) on Human Met and against Human Mer was no less than 7.00 throughout.
In the case of `COc1cnc2c(Oc3ccc(NC(=O)c4cn(C)c(C)c(C5=CCOCC5)c4=O)cc3F)ccnc2c1` [Compound 12, 5-(3,6-Dihydro-2H-pyran-4-yl)-N-[3-fluoro-4-[(7-methoxy-1,5-naphthyridin-4-yl)oxy]phenyl]-1,6-dimethyl-4-oxopyridine-3-carboxamide], the pIC50 on Human Met and on Human Mer was no less than 7.00 each time.
Take `COc1cc2nccc(Oc3ccc(NC(=O)c4cn(CCF)c(C)c(C5CCCC5)c4=O)cc3F)c2nc1OC` [Compound 13, 5-Cyclopentyl-N-[4-[(6,7-dimethoxy-1,5-naphthyridin-4-yl)oxy]-3-fluorophenyl]-1-(2-fluoroethyl)-6-methyl-4-oxopyridine-3-carboxamide]: the pIC50 on Human Met and against Human Mer was no less than 7.00 throughout.
Turning to `COc1cc2nccc(Oc3ccc(NC(=O)c4c(C)cc(C)n(C5=CCCC5)c4=O)cc3F)c2nc1OC` [Compound 14, 1-(Cyclopenten-1-yl)-N-[4-[(6,7-dimethoxy-1,5-naphthyridin-4-yl)oxy]-3-fluorophenyl]-4,6-dimethyl-2-oxopyridine-3-carboxamide], the negative logarithm of the IC50 (pIC50) at Human Met and on Human Mer was no less than 7.00 each time.
With `COc1cc2nccc(Oc3ccc(NC(=O)c4c(C)cc(C)n(C5CCCC5)c4=O)cc3F)c2nc1OC` [Compound 15, 1-Cyclopentyl-N-[4-[(6,7-dimethoxy-1,5-naphthyridin-4-yl)oxy]-3-fluorophenyl]-4,6-dimethyl-2-oxopyridine-3-carboxamide], the negative-log IC50 (pIC50) at Human Met and against Human Mer was no less than 7.00 in each case.
`COc1cc2nccc(Oc3ccc(NC(=O)c4cnc(C)c(C5=CCCC5)c4O)cc3)c2cc1OC` [Compound 16, 5-(Cyclopenten-1-yl)-N-[4-(6,7-dimethoxyquinolin-4-yl)oxyphenyl]-4-hydroxy-6-methylpyridine-3-carboxamide]: the pIC50 on Human Met and at Human Mer was no less than 7.00 throughout.
Turning to `COc1cc2nccc(Oc3ccc(NC(=O)c4cnc(C)c(C5=CCOCC5)c4O)cc3)c2cc1OC` [Compound 17, 5-(3,6-Dihydro-2H-pyran-4-yl)-N-[4-(6,7-dimethoxyquinolin-4-yl)oxyphenyl]-4-hydroxy-6-methylpyridine-3-carboxamide], the pIC50 at Human Met and on Human Mer was no less than 7.00 throughout.
For the compound `COc1cc2nccc(Oc3ccc(NC(=O)c4cnc(C)c(C5=CCCC5)c4O)cc3F)c2cc1OC` [Compound 18, 5-(Cyclopenten-1-yl)-N-[4-(6,7-dimethoxyquinolin-4-yl)oxy-3-fluorophenyl]-4-hydroxy-6-methylpyridine-3-carboxamide], the negative logarithm of the IC50 (pIC50) at Human Met and against Human Mer was no less than 7.00 throughout.
Consider `COc1cc2nccc(Oc3ccc(NC(=O)c4cnc(C)c(C5=CCOCC5)c4O)cc3F)c2cc1OC` [Compound 19, 5-(3,6-Dihydro-2H-pyran-4-yl)-N-[4-(6,7-dimethoxyquinolin-4-yl)oxy-3-fluorophenyl]-4-hydroxy-6-methylpyridine-3-carboxamide], for which the pIC50 on Human Met and on Human Mer was no less than 7.00 throughout.
As for `C=C(C)n1c(C)cc(C)c(C(=O)Nc2ccc(Oc3ccnc4cc(OC)c(OC)nc34)c(F)c2)c1=O` [Compound 20, N-[4-[(6,7-Dimethoxy-1,5-naphthyridin-4-yl)oxy]-3-fluorophenyl]-4,6-dimethyl-2-oxo-1-prop-1-en-2-ylpyridine-3-carboxamide], the negative-log IC50 (pIC50) at Human Met and against Human Mer was no less than 7.00 each time.
In the case of `C=C(C)n1c(C)cc(C)c(C(=O)Nc2ccc(Oc3ccnc4cc(OC)cnc34)c(F)c2)c1=O` [Compound 21, N-[3-Fluoro-4-[(7-methoxy-1,5-naphthyridin-4-yl)oxy]phenyl]-4,6-dimethyl-2-oxo-1-prop-1-en-2-ylpyridine-3-carboxamide], the negative logarithm of the IC50 (pIC50) at Human Met and on Human Mer was no less than 7.00 in each case.
Regarding `COc1cc2nccc(Oc3ccc(NC(=O)c4c(C)c(Br)c(C)n(C5CCCC5)c4=O)cc3F)c2nc1OC` [Compound 22, 5-Bromo-1-cyclopentyl-N-[4-[(6,7-dimethoxy-1,5-naphthyridin-4-yl)oxy]-3-fluorophenyl]-4,6-dimethyl-2-oxopyridine-3-carboxamide], the pIC50 at Human Met and against Human Mer was no less than 7.00 in each case.
Consider `COc1cc2nccc(Oc3ccc(NC(=O)c4cnc(C)c(C5=CCCCC5)c4O)cc3F)c2cc1OC` [Compound 23, 5-(Cyclohexen-1-yl)-N-[4-(6,7-dimethoxyquinolin-4-yl)oxy-3-fluorophenyl]-4-hydroxy-6-methylpyridine-3-carboxamide], for which the pIC50 on Human Met and at Human Mer was no less than 7.00 in each case.
For the compound `COc1cc2nccc(Oc3ccc(NC(=O)c4cnc(C)c(C5=CCCCC5)c4O)cc3)c2cc1OC` [Compound 24, 5-(Cyclohexen-1-yl)-N-[4-(6,7-dimethoxyquinolin-4-yl)oxyphenyl]-4-hydroxy-6-methylpyridine-3-carboxamide], the pIC50 on Human Met and on Human Mer was no less than 7.00 throughout.
